Key:
[1] = target: T1, monoamine oxidase A (Homo sapiens, UniProt P21397); test: Fluorescent enhancement of MAO substrates after incubation with MAO A; type: biochemical; conditions: MAO A 10 μg/ml, substrate 200 μM, 37° C., 2 hours, emission 530 nm
T1 construct: purchased Sigma Aldrich
T1 sequence (P21397 1-527): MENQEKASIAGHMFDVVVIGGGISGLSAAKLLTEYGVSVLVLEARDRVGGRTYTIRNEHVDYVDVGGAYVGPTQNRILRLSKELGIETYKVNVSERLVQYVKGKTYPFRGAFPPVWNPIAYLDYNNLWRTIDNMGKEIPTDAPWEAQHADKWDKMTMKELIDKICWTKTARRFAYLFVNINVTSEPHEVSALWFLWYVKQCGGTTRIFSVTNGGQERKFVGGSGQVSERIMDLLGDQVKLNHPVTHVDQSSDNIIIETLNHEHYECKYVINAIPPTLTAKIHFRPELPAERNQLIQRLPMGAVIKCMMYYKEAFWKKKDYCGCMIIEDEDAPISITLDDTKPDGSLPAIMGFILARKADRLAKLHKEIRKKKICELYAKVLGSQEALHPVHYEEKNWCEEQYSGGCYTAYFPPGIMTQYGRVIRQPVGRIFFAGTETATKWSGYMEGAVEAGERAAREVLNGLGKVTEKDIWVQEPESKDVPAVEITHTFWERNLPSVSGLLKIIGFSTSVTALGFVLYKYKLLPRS
Method: (§1) Activity of fluorogenic MAO-HPQ 1, 2 and 3 were determined by the fluorescence intensity after incubations separately with monoamine oxidase A or B at 37° C. for 2 hours. Typically, 5 μl of MAO A and B enzyme solution (final concentration of 10 μg/ml) was incubated with MAO substrates 1, 2 and 3 (final concentration of 200 μM) in a 100 mM Tris-HCl buffer, pH 7.90, 5% glycerol and 5% DMSO. After 2 hours of incubation, the fluorescent enhancement was monitored by Fluorescence spectrophotometer with excitation wavelength at 360 nm.
(§2) The activity of these three probes (MAO-HPQ 1˜3) towards both MAO isozymes were investigated by in vitro fluorescent measurements. All the MAO substrates 1, 2, and 3 were very stable in aqueous solutions and were almost non-fluorescent before MAO enzymatic oxidation due to the alkylation of the 2′-hydroxyl group in the 2-(2′-hydroxy-5′-chlorophenyl)-6-chloro-4(3H)-quinazolinone fluorophore.
(§3) The ratio of fluorescent intensity in the presence and absence of MAO enzymes were used to estimate MAO activities.

[2] = system: PC12 cell line; test: Cell viability, standard MTT assay; type: cell-based, Rattus norvegicus; conditions: FIG. 6
Method: FIG. 6 illustrates the cell viability of substrate MAO-HPQ 1 (2-(5′-chloro-2′-(3-aminopropoxy)phenyl)-6-chloro-4(3H)-quinazolinone) and 2-(2′-hydroxy-5′-chlorophenyl)-6-chloro-4(3H)-quinazolinone (indicated as HPQ″) in PC12 cell line. As a Control, cells were treated with 5% of DMSO only.
the cytotoxicity activity of MAO-HPQ 1 was evaluated by the standard MTT assay as previously described in Y. H. Choi et al, J. Control. Rel., 1998, 54, 39-48. MAO-HPQ 1 indicates less toxicity and thereby can be used as a probe for real-time imaging of MAO activity in living cells (FIG. 6).

[3] = system: MAO activity in PC12 cells; test: Imaging of MAO activity in living PC12 cells; type: cell-based, Rattus norvegicus; conditions: 100 μM, 37° C., 1 h
Method: (§4) PC12 cell (Rattus norvegicus, adrenal gland) was bought from American Type Culture Collection (ATCC Cat No: CR-1721) and maintained in F-12K medium (ATCC, Manassas Va.) containing 10% FBS (Invitrogen, Burlington, Canada). PC12 cell line were seeded at a density of 2×10^5 in a 35 mm diameter μ-dish plastic bottom (ibidi GmbH, Germany) and cultured for 2 days with Nerve Growth Factor (2.5S, 30 ng/mL, Invitrogen, Carlsbad, Calif.)^[2] in Dulbecco's Modified Eagle Medium (DMEM 1×, without phenol red, Gibco/Invitrogen, Carlsbad, Calif.) containing 4.5 g/L D-glucose, 2 mM GlutaMax-1 (Invitrogen). Control C6 glioma cell line was bought from American Type Culture Collection (ATCC Cat No.: CCL-107) and cultured with the same protocol as PC12 cell lines). After 2 days of culture, the live PC12 and C6 glioma cell lines were washed twice with DMEM. The live cells were then treated separately with 100 μM of MAO-HPQ 1 in DMEM (containing 0.5% of DMSO) and incubated for 1 hour in an incubator at 37° C. The cells were washed twice with Hank's Balanced Salt solution (Sigma). The fluorescence imaging was acquired with a Confocal fluorescence microscope (Nikon, Eclipse TE2000-E) using a super high pressure mercury lamp (Nikon, TE2-PS100W) with excitation filter: 360/40 nm; emission filter: 535/40 nm.
(§5) PC12 cell line was chosen owing to its high expression of MAO. […]

[4] = Stability of substrates in aqueous solutions; type: physicochemical; conditions: before MAO enzymatic oxidation
Excerpt: as §2

[5] = target: T2, monoamine oxidase B (Homo sapiens, UniProt P27338); test: Fluorescent enhancement of MAO substrates after incubation with MAO B; type: biochemical; conditions: MAO B 10 μg/ml, substrate 200 μM, 37° C., 2 hours, emission 530 nm
T2 construct: purchased Sigma Aldrich
T2 sequence (P27338 1-520): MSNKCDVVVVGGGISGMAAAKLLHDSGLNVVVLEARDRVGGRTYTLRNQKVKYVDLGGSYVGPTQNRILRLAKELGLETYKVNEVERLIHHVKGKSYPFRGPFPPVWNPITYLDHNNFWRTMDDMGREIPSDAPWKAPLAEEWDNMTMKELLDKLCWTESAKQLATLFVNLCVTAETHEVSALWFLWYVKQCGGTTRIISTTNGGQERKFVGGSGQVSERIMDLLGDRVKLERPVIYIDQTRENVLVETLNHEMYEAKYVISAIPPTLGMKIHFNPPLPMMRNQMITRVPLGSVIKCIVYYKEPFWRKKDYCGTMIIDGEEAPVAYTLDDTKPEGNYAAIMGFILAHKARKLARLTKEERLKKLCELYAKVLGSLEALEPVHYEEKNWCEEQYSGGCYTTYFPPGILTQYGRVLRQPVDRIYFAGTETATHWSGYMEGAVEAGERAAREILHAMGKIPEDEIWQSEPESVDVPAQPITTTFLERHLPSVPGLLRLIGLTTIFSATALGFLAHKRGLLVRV
Method: as §1, §2, §3

[6] = system: C6 glioma cells; test: Imaging in living C6 glioma cells (negative control, no MAO expression); type: cell-based; conditions: 100 μM, 37° C., 1 h
Method: as §4, §5

[7] = system: MAO activity in PC12 cells; test: Inhibition imaging: PC12 cells pre-treated with inhibitor, then MAO-HPQ 1; type: cell-based, Rattus norvegicus; conditions: 100 μM inhibitor pre-treatment, then 100 μM MAO-HPQ 1, 37° C., 1 h
Method: In the inhibition investigation, the live PC12 cell lines were washed twice with DMEM and pre-treated separately with 100 μM Clorgyline and Pargyline in DMEM for 1 hour in an incubator at 37° C. MAO-HPQ 1 was then added to the μ-dish with the final concentration of 100 μM and incubated for another 1 hour at 37° C. The cells were then washed twice with Hank's Balanced Salt solution. The fluorescence imaging was acquired with the Confocal fluorescence microscope.
Further imaging investigations were conducted by utilizing two commonly used inhibitors: Clorgyline for MAO A and Pargyline for MAO B. The PC12 cells were pre-treated separately with 100 μM of MAO A inhibitor clorgyline and MAO B inhibitor pargyline, and then incubated with 100 μM of MAO-HPQ probe 1 at 37° C. for 1 h. […] This is in accordance with the in vitro enzyme inhibition tests (FIG. 5). MAO-HPQ 1 indicates less toxicity (FIG. 6) and thereby can be used as a new probe for real-time imaging of MAO activity in living cells.

Compound: NCCCOc1ccc(Cl)cc1-c1nc2ccc(Cl)cc2c(=O)[nH]1 [MAO-HPQ 1, 2-(5′-chloro-2′-(3-aminopropoxy)phenyl)-6-chloro-4(3H)-quinazolinone]
- maximum fluorescent enhancement (ratio of fluorescent intensity in the presence and absence of MAO enzyme) [1]: 307 fold
- cytotoxicity activity (MTT) [2]: less toxicity
- fluorescence in live cell imaging [3]: bright fluorescence signals
- stability in aqueous solutions [4]: very stable
- maximum fluorescent enhancement (ratio of fluorescent intensity in the presence and absence of MAO enzyme) [5]: 300 fold
- fluorescence in live cell imaging [6]: little

Compound: CN(C)CCCOc1ccc(Cl)cc1-c1nc2ccc(Cl)cc2c(=O)[nH]1 [MAO-HPQ 3, 2-(5′-chloro-2′-(3-(N,N′-dimethylamino)propoxy)phenyl)-6-chloro-4(3H)-quinazolinone]
- maximum fluorescent enhancement (ratio of fluorescent intensity in the presence and absence of MAO enzyme) [1]: 5 fold
- stability in aqueous solutions [4]: very stable
- maximum fluorescent enhancement (ratio of fluorescent intensity in the presence and absence of MAO enzyme) [5]: 7 fold

Compound: C#CCN(C)Cc1ccccc1 [pargyline, Pargyline]
- fluorescence of PC12 cells pre-treated with inhibitor (MAO inhibition in living cells) [7]: strong fluorescence similar to the imaging result without inhibitor treatment

Compound: C#CCN(C)CCCOc1ccc(Cl)cc1Cl [clorgyline, Clorgyline]
- fluorescence of PC12 cells pre-treated with inhibitor (MAO inhibition in living cells) [7]: no obvious fluorescence

Compound: CNCCCOc1ccc(Cl)cc1-c1nc2ccc(Cl)cc2c(=O)[nH]1 [MAO-HPQ 2, 2-(5′-chloro-2′-(3-(N-methylamino)propoxy)phenyl)-6-chloro-4(3H)-quinazolinone]
- maximum fluorescent enhancement (ratio of fluorescent intensity in the presence and absence of MAO enzyme) [1]: 15 fold
- stability in aqueous solutions [4]: very stable
- maximum fluorescent enhancement (ratio of fluorescent intensity in the presence and absence of MAO enzyme) [5]: 20 fold

Reference: patent publication US8697714B2, “Quinazolinone based fluorogenic probes” (Nanyang Technological University, priority 2010, dated 2014)
